Data as given in publication PMC9188596, “Structural basis of resistance to herbicides that target acetohydroxyacid synthase” (Nature Communications, 2022).
“And” between values parts separate entries of the source, which are not always exact repeats. Equal entries are not always repeated.

Experiments:
WT AtAHAS [1] = target: T1, WT AtAHAS (Arabidopsis thaliana, UniProt P17597); test: Ki of herbicides, continuous spectrophotometric AHAS assay; format: biochemical; conditions: Ki, WT AtAHAS; ± standard error of the mean
Description: (§1) Standard assays were performed using a continuous spectrophotometric method measuring the disappearance of pyruvate. The standard buffer contained 50 mM potassium phosphate, pH 7.2, 1 mM ThDP, 10 mM MgCl2, and 10 µM FAD. The concentration of pyruvate was in the range 100–160 mM, as described in the text, methods, or figure legends.
(§2) Supplementary Figure 6. Measurement of the Ki values for WT AtAHAS and the mutants.
(§3) The error bars represent the standard error of the mean of two independent replicates. [I] =
(§4) inhibitor concentration. Source data are provided with this paper.
(§5) (1 picture or pasted object on this page, not shown here)

AtAHAS W574L mutant [2] = target: T2, AtAHAS W574L mutant (Arabidopsis thaliana, UniProt P17597, W574L); format: biochemical; conditions: NAI = no accumulative inhibition detected
Description: as §1
(§6) AtAHAS was assayed in the standard assay buffer containing 160 mM pyruvate, at 30 °C. For AtAHAS activation the progress curve corresponding to the lag-phase was fitted to Eq. (8) of Lonhienne et al.[14]. For the time dependent accumulative inhibition of AtAHAS the progress curves were fitted to Equation 9 of Lonhienne et al.[12].
(§7) Supplementary Figure 8. Measurement of the rate constants of accumulative inhibition for WT AtAHAS and its mutants. The progress curves were fitted to the equation of accumulative inhibition (Equation 7 2). The rate constants of enzyme inactivation ( kiapp) and enzyme recovery (k3) were measured in triplicate. Source data are provided with this paper. […]

AtAHAS S653T mutant [3] = target: T3, AtAHAS S653T mutant (Arabidopsis thaliana, UniProt P17597, S653T); format: biochemical
Description: as §1, §6, §7

AtAHAS P197T mutant [4] = target: T4, AtAHAS P197T mutant (Arabidopsis thaliana, UniProt P17597, P197T); format: biochemical; conditions: P197T, NAI = no accumulative inhibition detected
Description: as §1, §6, §7

AtAHAS P197L mutant [5] = target: T5, AtAHAS P197L mutant (Arabidopsis thaliana, UniProt P17597, P197L); format: biochemical; conditions: NAI = no accumulative inhibition detected
Description: as §1, §6, §7

AtAHAS W574L mutant [6] = target: T2, AtAHAS W574L mutant; test: biochemical
Description: as §1, §2, §3, §4, §5

AtAHAS S653T mutant [7] = target: T3, AtAHAS S653T mutant; test: biochemical; conditions: Ki, S653T mutant; ± standard error of the mean
Description: as §1, §2, §3, §4, §5

AtAHAS P197T mutant [8] = target: T4, AtAHAS P197T mutant; test: biochemical
Description: as §1, §2, §3, §4, §5

AtAHAS P197L mutant [9] = target: T5, AtAHAS P197L mutant; test: biochemical
Description: as §1, §2, §3, §4, §5

WT AtAHAS [10] = target: T1, WT AtAHAS; format: biochemical
Description: as §1, §6
Supplementary Figure 8. Measurement of the rate constants of accumulative inhibition for WT AtAHAS and its mutants. The progress curves were fitted to the equation of accumulative inhibition (Equation 7 2). The rate constants of enzyme inactivation ( kiapp) and enzyme recovery (k3) were measured in triplicate. Source data are provided with this paper.

AtAHAS W574L mutant [11] = target: T2, AtAHAS W574L mutant; test: Inhibition of AHAS activity by ubiquinone Q0; format: biochemical; conditions: read-out: % inhibition of AHAS activity by 0.5 mM Q0
Description: (§8) Next, we investigated how the mutants responded to regulation by redox signaling molecules using ubiquinone Q0 (Q0) as an example[14].
(§9) Supplementary Figure 5. Inhibition of WT AtAHAS and the mutants by Q0. AtAHAS was incubated with 100 mM pyruvate at 30°C. After reaching full activation, the inhibition reaction was initiated by addition of 0.5 mM Q0 to the sample cell. After seven minutes incubation with Q0, 1 mM DTT was added to reduce the remaining Q0, triggering re-activation of the enzyme.
(§10) Source data are provided with this paper.
as §5

AtAHAS S653T mutant [12] = target: T3, AtAHAS S653T mutant; test: Inhibition of AHAS activity by ubiquinone Q0; format: biochemical; conditions: read-out: % inhibition of AHAS activity by 0.5 mM Q0
Description: as §8, §9, §10, §5

WT AtAHAS [13] = target: T1, WT AtAHAS; test: Inhibition of AHAS activity by ubiquinone Q0; format: biochemical; conditions: read-out: % inhibition of AHAS activity by 0.5 mM Q0
Description: as §8, §9, §10, §5

AtAHAS P197T mutant [14] = target: T4, AtAHAS P197T mutant; test: Inhibition of AHAS activity by ubiquinone Q0; format: biochemical; conditions: read-out: % inhibition of AHAS activity by 0.5 mM Q0
Description: as §8, §9, §10, §5

AtAHAS P197L mutant [15] = target: T5, AtAHAS P197L mutant; test: Inhibition of AHAS activity by ubiquinone Q0; format: biochemical; conditions: read-out: % inhibition of AHAS activity by 0.5 mM Q0
Description: as §8, §9, §10, §5

[16] = S653T, individual replicate of triplicate
[17] = individual replicate of triplicate

## COc1cc(OC)nc(NC(=O)NS(=O)(=O)N(C)S(C)(=O)=O)n1 [AS, amidosulfuron]
WT AtAHAS [1]
  Ki: 4.2 ± 0.6 µM
AtAHAS W574L mutant [2]; 160 mM pyruvate, 30 °C
  k3 (rate of recovery): NAI
  kiapp (apparent rate of enzyme inactivation): NAI
AtAHAS W574L mutant [2]
  kiapp/k3 (efficiency of accumulative inhibition): NAI
AtAHAS S653T mutant [3]; S653T
  kiapp/k3 (efficiency of accumulative inhibition): 95
AtAHAS S653T mutant [3]; S653T vs WT
  efficiency of accumulative inhibition (kiapp/k3) compared to WT (in words): increased
AtAHAS S653T mutant [3]; S653T, 160 mM pyruvate, 30 °C, ± SEM
  k3 (rate of recovery): 0.02 ± 0.002 min⁻¹
AtAHAS S653T mutant [3]; [16]
  k3, single progress curve (Supplementary Figure 8): 0.02 min⁻¹ and 0.023 min⁻¹ and 0.021 min⁻¹
  kiapp, single progress curve (Supplementary Figure 8): 1.93 min⁻¹ and 1.94 min⁻¹ and 2.21 min⁻¹
AtAHAS P197T mutant [4]; 160 mM pyruvate, 30 °C
  k3 (rate of recovery): NAI
  kiapp (apparent rate of enzyme inactivation): NAI
AtAHAS P197T mutant [4]
  kiapp/k3 (efficiency of accumulative inhibition): NAI
AtAHAS P197L mutant [5]; 160 mM pyruvate, 30 °C
  k3 (rate of recovery): NAI
  kiapp (apparent rate of enzyme inactivation): NAI
AtAHAS P197L mutant [5]
  kiapp/k3 (efficiency of accumulative inhibition): NAI
AtAHAS W574L mutant [6]; Ki (Supplementary Figure 6), W574L, fit of % activity remaining vs [I], two independent replicates
  Ki: 871 ± 66.5 µM
AtAHAS W574L mutant [6]; Ki, W574L mutant, ± standard error of the mean
  Ki: 870 ± 60 µM
AtAHAS S653T mutant [7]
  Ki: 0.492 ± 0.025 µM
AtAHAS P197T mutant [8]; Ki (Supplementary Figure 6), P197T, fit of % activity remaining vs [I], two independent replicates
  Ki: 61.4 ± 8.92 µM
AtAHAS P197T mutant [8]; Ki, P197T mutant, ± standard error of the mean
  Ki: 61.4 ± 8.9 µM
AtAHAS P197L mutant [9]; Ki (Supplementary Figure 6), P197L, fit of % activity remaining vs [I], two independent replicates
  Ki: 93.5 ± 17.1 µM
AtAHAS P197L mutant [9]; Ki, P197L mutant, ± standard error of the mean
  Ki: 93.5 ± 17.1 µM
WT AtAHAS [10]
  kiapp/k3 (efficiency of accumulative inhibition): 20
WT AtAHAS [10]; 160 mM pyruvate, 30 °C, ± SEM
  k3 (rate of recovery): 0.02 ± 0.001 min⁻¹
  kiapp (apparent rate of enzyme inactivation): 0.39 ± 0.06 min⁻¹
WT AtAHAS [10]; [17]
  k3, single progress curve (Supplementary Figure 8): 0.021 min-1 and 0.02 min-1 (2×)
  kiapp, single progress curve (Supplementary Figure 8): 0.34 min⁻¹ and 0.46 min⁻¹ and 0.36 min⁻¹

## COC1=C(OC)C(=O)C(C)=CC1=O [Q0, ubiquinone Q0]
AtAHAS W574L mutant [11]
  inhibition at 500 µM: 97%
AtAHAS S653T mutant [12]
  inhibition at 500 µM: 85%
WT AtAHAS [13]
  inhibition at 500 µM: 82%
AtAHAS P197T mutant [14]
  inhibition at 500 µM: 91%
AtAHAS P197L mutant [15]
  inhibition at 500 µM: 89%
